Results: publication PMC11189516, “Structure-guided conversion from an anaplastic lymphoma kinase inhibitor into Plasmodium lysyl-tRNA synthetase selective inhibitors” (Communications Biology, 2024)
Values joined by “and” are separate entries in the source; they are usually repeats but may differ in a detail not shown here. Identical values can stand only once. Like-named read-outs stand apart in the source and are kept apart here.

Legend:
[1] = Solubility noted in the cytotoxicity assay; assay type: physicochemical; conditions: highest concentration limited to 100 μM in cell medium
Procedure: Cell viability was analyzed by Cell Counting Kit-8 (CCK8, ApexBio) according to the manufacturer’s protocols. Cells were seeded and cultured at a density of 2.5 × 10^3 cells per well in 100 μL medium in 96-well microplates (Corning). Then, the cells were treated with different concentrations of compound (0, 1 μM, 3 μM, 10 μM, 100 μM, 300 μM). […] After treatment for 72 h, 10 μL of CCK-8 reagent was added to each well and then cultured for 4 h. All experiments were performed in pentaplicate. The absorbance was analyzed at 450 nm using a microplate reader (Tecan) using medium without cells as blanks. Data was processed using GraphPad Prism 9.

PfLysRS [2] = molecular target: T1, PfLysRS (Plasmodium falciparum, UniProt Q8IDJ8); experiment: Thermal shift assay; assay type: binding
T1 construct: PfLysRS (77–583) was constructed in the vector pET20b, with a C-terminal 6×His tag; 6xHis (C); made in house; host or cells: E. coli BL21 (DE3)
Procedure: PfLysRS protein was prepared at 10 μM concentration in a buffer containing 20 mM Tris pH 8.0, 200 mM NaCl, 500 μM L-lysine, and 200 μM Compound. Aliquots (18 µL) were added to a 96-well PCR plate and incubated at ambient temperature for 10 min. SYPRO Orange dye (Sigma) was diluted in the assay buffer containing 20 mM Tris pH 8.0 and 200 mM NaCl to a 40× concentration, and 2 µL of the 40× dye solution was added to the PCR plate to bring the final assay volume to 20 µL. After complete mixing, the final solutions were heated from 25 to 90 °C at a rate of 0.015 °C per sec, and fluorescence signals were monitored by QuantStudio 3 (Applied Biosystems by Thermo Fisher Scientific).

ALK = molecular target: T2, ALK (Homo sapiens, UniProt Q9UM73); experiment: ATP hydrolysis assay (Kinase-Glo) on ALK; assay type: biochemical; conditions: for LogIC50 (best-fit value): log of nM
T2 construct: The plasmid pCDNA3.1_8×His-tev-ALK (kinase domain, 1068–1410) was constructed; 8xHis (N); TEV site (N); made in house; host or cells: Expi293 cells (transient transfection)
Procedure: (§1) The ATP hydrolysis assays were based on Kinase-Glo luminescent Kit (Promega). The experiment was carried out in Corning 384-well white flat bottom microplates. The buffer in the reaction contains 25 mM Hepes pH 7.4, 140 mM NaCl, 40 mM MgCl2, 30 mM KCl, 1 mM TCEP, 0.1 mg·mL^−1 BSA, and 0.004% Tween-20. The compounds were diluted to different concentrations with a 5-fold gradient.
For ALK assays, DMSO was added into negative control wells. 100 nM ALK in 2.5 μL Hepes buffer was mixed with compounds and incubated for 10 min. Then 5 μL substrate (2 μM ATP) was added to start the reaction at 37 °C and incubated for 6 h.
(§2) When the reaction reaches the planned time, 10 μL diluted Kinase-Glo reagent (1/50 diluted with a buffer containing 50 mM Tris pH 7.5 and 5% glycerol) was added and incubated for 15 min. Luminescence was measured on the Magellan plate reader (Tecan) and nonlinear regression was performed with Prism (GraphPad).

PfLysRS [3] = molecular target: T1, PfLysRS; experiment: ATP hydrolysis assay (Kinase-Glo) on PfLysRS; assay type: biochemical; conditions: for LogIC50 (best-fit value): log of nM
Procedure: as §1
(§3) For LysRS assays, DMSO was added into negative control wells and L-lysine was removed in positive control wells. 100 nM LysRS in 2.5 μL Hepes buffer was mixed with compounds and incubated for 10 min. Then 5 μL substrate mixture (2 μM ATP, 10 μM L-lysine and 31 nM pyrophosphatase) was added to start the reaction at 37 °C and incubated for 6 h.
as §2

HsLysRS = molecular target: T3, HsLysRS (Homo sapiens, UniProt Q15046); experiment: ATP hydrolysis assay (Kinase-Glo) on HsLysRS; assay type: biochemical; conditions: for LogIC50 (best-fit value): log of nM
T3 construct: HsLysRS (70–581) was constructed in the vector pET20b with a C-terminal 6×His tag; 6xHis (C); made in house; host or cells: E. coli (pET20b; 'purified similarly' to PfLysRS, which was expressed in BL21 (DE3))
Procedure: as §1, §3, §2

PfLysRS [4] = molecular target: T1, PfLysRS; experiment: Surface plasmon resonance (SPR) assay; assay type: binding; conditions: immobilized PfLysRS; for Kd: 1 mM L-lysine in running buffer, read-out: dissociation constant (KD)
Procedure: PfLysRS was chemically immobilized on a Biacore CM5 sensorchip (immobilization level ~20000 resonance unit/RU) at pH 5.0 according to the immobilization kit (GE Healthcare). PfLysRS (1.7 nM) was captured for 90 s at a flow of 30 µL·min^−1. Affnity between PfLysRS and compounds was measured by SPR on a Biacore 8 K (GE Healthcare) at 25 °C with a running buffer (0.02 M phosphate buffer pH 7.4, 2.7 mM KCl, 0.137 M NaCl, 0.05% Tween 20, with 1 mM L-lysine). The association time was 90 s, the dissociation time was 120 s, and the flowrate was 30 µL·min^−1. Kinetic evaluation of the interaction between LysRS and compounds was performed by global fitting of the data to a 1:1 interaction model using Biacore Evaluation Software 3.1 (GE Healthcare).

[5] = +Lysine, sheet Figure 6B, in °C (unit assumed)
[6] = ALK, source data, read-out: IC50 (best-fit value)
[7] = PfLysRS, source data, read-out: IC50 (best-fit value)
[8] = HsLysRS, Log(Concentration)/nM 2.505, single repeats
[9] = HsLysRS, Log(Concentration)/nM 3.204, single repeats
[10] = HsLysRS, Log(Concentration)/nM 3.903, single repeats
[11] = HsLysRS, Log(Concentration)/nM 4.602, single repeats
[12] = HsLysRS, Log(Concentration)/nM 5.301, single repeats
[13] = HsLysRS, source data, read-out: IC50 (best-fit value)

T1 sequence (Q8IDJ8 entry or part of it): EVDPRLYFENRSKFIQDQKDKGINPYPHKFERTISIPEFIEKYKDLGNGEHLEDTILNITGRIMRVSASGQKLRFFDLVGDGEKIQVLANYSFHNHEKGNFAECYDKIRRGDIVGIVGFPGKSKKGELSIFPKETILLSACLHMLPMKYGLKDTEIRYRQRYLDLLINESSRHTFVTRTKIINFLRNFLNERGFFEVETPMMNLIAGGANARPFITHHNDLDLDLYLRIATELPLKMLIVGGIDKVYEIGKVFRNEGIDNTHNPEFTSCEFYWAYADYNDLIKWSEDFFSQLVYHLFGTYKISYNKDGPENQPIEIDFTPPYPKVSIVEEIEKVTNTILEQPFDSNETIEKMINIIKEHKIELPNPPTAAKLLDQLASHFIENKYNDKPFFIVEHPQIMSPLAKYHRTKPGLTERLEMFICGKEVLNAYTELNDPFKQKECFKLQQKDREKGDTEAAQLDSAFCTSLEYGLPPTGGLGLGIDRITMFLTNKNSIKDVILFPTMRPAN
T3 sequence (Q15046 70-581): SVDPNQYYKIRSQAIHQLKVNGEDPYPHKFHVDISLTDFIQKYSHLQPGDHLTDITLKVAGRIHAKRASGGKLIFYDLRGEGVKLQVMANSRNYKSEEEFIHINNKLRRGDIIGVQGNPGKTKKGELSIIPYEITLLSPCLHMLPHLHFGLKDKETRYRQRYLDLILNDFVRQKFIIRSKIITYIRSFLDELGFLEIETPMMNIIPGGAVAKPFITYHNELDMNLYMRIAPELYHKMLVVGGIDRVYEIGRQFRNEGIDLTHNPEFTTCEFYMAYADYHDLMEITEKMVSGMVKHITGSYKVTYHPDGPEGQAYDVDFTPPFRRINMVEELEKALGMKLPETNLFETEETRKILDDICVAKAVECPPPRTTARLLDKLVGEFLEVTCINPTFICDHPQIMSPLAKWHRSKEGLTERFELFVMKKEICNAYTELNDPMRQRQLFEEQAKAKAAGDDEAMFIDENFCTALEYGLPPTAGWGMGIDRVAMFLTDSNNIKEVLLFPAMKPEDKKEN
T2 sequence (Q9UM73 1068-1410): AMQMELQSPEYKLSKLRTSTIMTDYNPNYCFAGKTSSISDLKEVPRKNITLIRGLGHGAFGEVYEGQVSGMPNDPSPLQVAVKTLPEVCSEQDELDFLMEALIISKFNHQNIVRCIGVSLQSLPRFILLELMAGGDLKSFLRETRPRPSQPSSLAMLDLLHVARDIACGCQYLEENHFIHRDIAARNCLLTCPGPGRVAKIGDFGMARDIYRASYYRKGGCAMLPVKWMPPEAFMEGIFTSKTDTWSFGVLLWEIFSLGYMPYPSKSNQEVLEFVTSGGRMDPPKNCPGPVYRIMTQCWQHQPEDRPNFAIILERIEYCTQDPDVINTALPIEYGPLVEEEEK

SMILES | solubility [1] | Tm of PfLysRS, Average (PfLysRS [2]; +Lysine) [°C] | Tm of PfLysRS, single repeat (PfLysRS [2]; +Lysine) | Tm of PfLysRS, Average (PfLysRS [2]; -Lysine) [°C] | Tm of PfLysRS, single repeat (PfLysRS [2]; -Lysine) | ΔTm at 200 µM (PfLysRS [2]; in the absence of L-lysine) [°C] | ΔTm at 200 µM (PfLysRS [2]; in the presence of L-lysine) [°C] | HillSlope (best-fit value) (ALK; ALK) | LogIC50 (best-fit value) (ALK; ALK) | IC50 (ALK; [6]) [µM] | IC50 (ALK; read-out: IC50 against ALK) [µM] | HillSlope (best-fit value) (PfLysRS [3]; PfLysRS) | LogIC50 (best-fit value) (PfLysRS [3]; PfLysRS) | IC50 (PfLysRS [3]; [7]) [µM] | IC50 (PfLysRS [3]; read-out: IC50 against PfLysRS) [µM] | HillSlope (best-fit value) (HsLysRS; HsLysRS) | % Inhibition (HsLysRS; [8]) | % Inhibition (HsLysRS; [9]) | % Inhibition (HsLysRS; [10]) | % Inhibition (HsLysRS; [11]) | other results
COc1ccc(OC)c(Nc2ncnc(Nc3ccccc3S(=O)(=O)C(C)C)n2)c1 [Compound 36] | poor solubility | 54.438 | 54.731 °C and 54.237 °C and 54.854 °C and 53.929 °C | 53.158 | 53.374 °C and 52.819 °C and 53.251 °C and 53.189 °C | 11.7 | 11.8 | 0.6864 | 4.281 | 19.1 | > 19.1 | 1.442 | 2.296 | 0.198 | 0.198 | 0.3683 | 19.3% and 12.84% and 21.95% | 37.3% and 27.64% and 28.87% | 26.36% and 22.16% and 26.38% | 50.64% and 39% and 42.59% | △Tm of PfLysRS (PfLysRS [2]; +Lysine, sheet Figure 6B): 10.644; Tm of PfLysRS, Average (PfLysRS [2]; [5]): 55.664; Tm of PfLysRS, single repeat (PfLysRS [2]; [5]): 55.710 and 55.464 and 56.018; % Inhibition (HsLysRS; HsLysRS, Log(Concentration)/nM 1.806, single repeats): 3.227% and 2.137% and -5.363%; % Inhibition (HsLysRS; [12]): 74.45% and 64.99% and 63.03%; LogIC50 (best-fit value) (HsLysRS; HsLysRS): 5.258; IC50 (HsLysRS; [13]): 181 µM; IC50 (HsLysRS; read-out: IC50 against HsLysRS): > 181 µM; koff (PfLysRS [4]): 0.0144 s⁻¹; kon (PfLysRS [4]): 907000 M/s; Kd (PfLysRS [4]): 0.0159 µM
COc1ccccc1Nc1ncnc(Nc2ccccc2S(=O)(=O)C(C)C)n1 [Compound 38] | poor solubility | 52.704 | 52.703 °C and 52.673 °C and 52.642 °C and 52.796 °C | 50.586 | 50.911 °C and 50.756 °C and 50.045 °C and 50.632 °C | 7.6 | ~9 | 1.505 | 2.726 | 0.532 | 0.532 | 0.6107 | 2.959 | 0.91 | 0.91 | 2.263 | 4.732% and 9.196% and 7.614% | 10.26% and 9.294% and 11.16% | 5.367% and 4.771% and 4.914% | 24.12% and 17.72% and 16.76% | % Inhibition (HsLysRS; [12]): 34.85% and 34.96% and 31.62%; % Inhibition (HsLysRS; HsLysRS, Log(Concentration)/nM 6.000, single repeats): 100.3% and 101% and 91.99%; LogIC50 (best-fit value) (HsLysRS; HsLysRS): 5.476; IC50 (HsLysRS; [13]): 299 µM; selectivity of PfLysRS over human LysRS (HsLysRS) (HsLysRS; in vitro): 328 times; IC50 (HsLysRS; read-out: IC50 against HsLysRS): 299 ± 34 µM; koff (PfLysRS [4]): 0.0137 s⁻¹; kon (PfLysRS [4]): 218000 M/s; Kd (PfLysRS [4]): 0.0628 µM
